Source: US11932607B1, “4-(2,4,5-tris(4-chlorophenyl)-1H-imidazol-1-yl)benzoic acid as an antimicrobial compound” (KING FAISAL UNIVERSITY, priority 2023, dated 2024)

Columns and labels:
Type in all cases: cell-based
Staphylococcus aureus = test: Agar plate disc-diffusion, antibacterial activity (inhibition zone); conditions: Gram positive, DMSO control zone subtracted
Experimental: (§1) The agar plate disc-diffusion method was applied. […] The discs were then placed onto the surface of agar plates (nutrient agar for bacteria and Sabouraud's dextrose agar for fungi) seeded with the test organism. Each plate contained 15 mL of the agar medium, previously seeded with 0.2 mL of the broth culture of each organism pregrown for 18 hours. The plates were incubated at 37° C. for 48 hours, and 72 hours for fungi. The inhibition zones was measured in mm. Discs impregnated with DMSO were used as a control, and its inhibition zone was subtracted from the tested compound actual inhibition zone.

Bacillus cereus = test: as above; conditions: Gram positive, DMSO control zone subtracted
Experimental: as §1

Pseudomonas aeruginosa = test: as above; conditions: Gram negative, DMSO control zone subtracted
Experimental: as §1

Escherichia coli = test: as above; conditions: Gram negative, DMSO control zone subtracted
Experimental: as §1

Aspergillus flavus = test: Agar plate disc-diffusion, antifungal activity (inhibition zone); conditions: fungal, DMSO control zone subtracted
Experimental: as §1

[1] = test system: Chrysosporium keratinophilum; test: as above; conditions: fungal, DMSO control zone subtracted
Experimental: as §1

[2] = A = concentration of comp. = 10,000 μL
[3] = B = concentration of comp. = 30,000 μL
[4] = C = concentration of comp. = 50,000 μL

O=C(O)c1ccc(-n2c(-c3ccc(Cl)cc3)nc(-c3ccc(Cl)cc3)c2-c2ccc(Cl)cc2)cc1 [V, 4-(2,4,5-tris(4-chlorophenyl)-1H-imidazol-1-yl)benzoic acid]
inhibition zone, Staphylococcus aureus, A (Staphylococcus aureus; [2]): 15 mm
inhibition zone, Staphylococcus aureus, B (Staphylococcus aureus; [3]): 22 mm
inhibition zone, Staphylococcus aureus, C (Staphylococcus aureus; [4]): 26 mm
inhibition zone, Bacillus Cereus, A (Bacillus cereus; [2]): 24 mm
inhibition zone, Bacillus Cereus, B (Bacillus cereus; [3]): 27 mm
inhibition zone, Bacillus Cereus, C (Bacillus cereus; [4]): 35 mm
inhibition zone, Pseudomonas aeruginosa, A (Pseudomonas aeruginosa; [2]): 24 mm
inhibition zone, Pseudomonas aeruginosa, B (Pseudomonas aeruginosa; [3]): 27 mm
inhibition zone, Pseudomonas aeruginosa, C (Pseudomonas aeruginosa; [4]): 32 mm
inhibition zone, Escherichia coli, A (Escherichia coli; [2]): 25 mm
inhibition zone, Escherichia coli, B (Escherichia coli; [3]): 28 mm
inhibition zone, Escherichia coli, C (Escherichia coli; [4]): 39 mm
inhibition zone, Aspergillus flavus, A (Aspergillus flavus; [2]): 21 mm
inhibition zone, Aspergillus flavus, B (Aspergillus flavus; [3]): 24 mm
inhibition zone, Aspergillus flavus, C (Aspergillus flavus; [4]): 35 mm
inhibition zone, Chrysosporium keratinophilum, A [1, 2]: 25 mm
inhibition zone, Chrysosporium keratinophilum, B [1, 3]: 28 mm
inhibition zone, Chrysosporium keratinophilum, C [1, 4]: 48 mm
